{
  "source": "patent US20220098146A1",
  "about": "“REVERSIBLE IMINE UV-ABSORBERS” (The United States of America, as represented by the …, priority 2020, published 2022)",
  "key": {"[1]": {"system": "Silver ide", "conditions": "cited from earlier work"}, "[2]": {"system": "Rat", "conditions": "cited from earlier work"}, "[3]": {"system": "Fathead minnow", "conditions": "cited from earlier work"}, "[4]": {"assay": "in vitro SPF and critical wavelength by UV spectroscopy and Mansur equation", "type": "physicochemical", "method": "General procedure for determining in vitro SPF and critical wavelength: This method was adapted from Dutra, et al. (Dutra, E. A., et al., Brazilian Journal of Pharmaceutical Sciences, 3: 381-385 (2004)). First, 1.0 gram of sunscreen was placed in 100 mL flask and filled to volume with ethanol. The solution was mixed and filtered through cotton. 1.0 mL of the filtered solution was added to a 50 mL volumetric flask and the flask was filled to volume with ethanol. This final solution (˜0.02% of initial sunscreen) was placed in a 1 cm polystyrene cuvette and UV/Vis spectrum was recorded from 290 to 400 nm, every 5 nm, using a UV/Vis spectrophotometer (Molecular Devices Spectramax M2 UV-Vis Spectrophotometer) with ethanol as a reference . Next, the Mansur equation was applied (Mansur, J. S., et al., An Bras Dermatol., 61: 121-124 (1986)):\nwhere EE (λ)=erythemal effect spectrum; I(λ)=solar intensity spectrum; abs (λ)=absorbance of sunscreen product; CF—correction factor (=10). The values of EE×I are constants determined by Sayre et al. (Photochemistry and Photobiology, 29(3): 559-566 (1979)) so that a standard sunscreen formulation containing 8% homosalate presents an SPF value of 4. The critical wavelength was determined as the wavelength at which 90% of the total absorbance from 290-400 nm occurred. […]"}, "[5]": {"system": "skin of the intrascapular regions of the back", "assay": "Human repeat insult patch testing (RIPT) for skin irritation and skin sensitization", "type": "in vivo", "method": "S2: Repeat Insult Patch Testing (RIPT) Procedure and Results: Human repeat insult patch testing for skin irritation and skin sensitization evaluations, including standard patient consent procedures and oversight, which were obtained after the nature and possible consequences of the study were explained, were conducted by BioScreen Testing Services, Inc. (Torrance, Calif.). Fifty-two volunteers were recruited, provided informed consent prior to initiating, and completed the study (ages 20-59, 10 male, 42 female, all with Fitzpatrick Skin Type 3—burn moderately, tan progressively). Approximately 0.02-0.05 mL of commercial formula (Daily Shower spray cleaner containing 0.2 or 1.0% cuminaldehyde aminoguanidine (CuminAG), pH 5.5-5.9; diluted 3% in DI water) was dispensed on a 7.5 mm paper disk or Rayon/polypropylene patch, which were then affixed to the skin of the intrascapular regions of the back. Subjects were instructed not to wet or expose the test area to sunlight. Patches were kept in place for 48 h after the first application, and 24 h after subsequent applications. This procedure was repeated until nine consecutive 24 h exposures had been made three times a week for three consecutive weeks. Test sites were evaluated by a trained laboratory personnel before each reapplication. After a 10-14 day rest period, a challenge dose was applied once to a previously unexposed test site, which was evaluated by a trained personnel after 48 and 96 h. The International Contact Dermatitis Research Group scoring scale was used: 0=no reaction, 1=erythema throughout at least ¾ of patch area, 2=erythema and induration throughout at least ¾ of patch area, 3=erythema, induration and vesicles, 4=erythema, induration and bullae."}, "[6]": {"assay": "Calculation of skin permeation coefficient using Modified Potts and Guy Model", "conditions": "ratio of calculated skin permeation coefficient to that of octinoxate", "source_text": "S1: Calculation of Skin Permeation using Modified Potts and Guy Model: The Modified Potts and Guy Model is a validated method for calculating the skin permeation coefficient (Kp) of a compound in cm/hr (Wilschut et al. 1995; Guy and Potts 1993). It relies on two inputs—the octanol-water partition coefficient, (Kow, indicative of hydrophobicity), and the molecular weight of the compound as follows:\nUsing the Modified Potts and Guy Model, we calculated the skin permeation coefficient (Kp) of aminoguanidine and aldehyde subcomponents. This scenario represents the skin permeation of our compounds after dissociation. In order to probe skin permeation of the assembled guanyl hydrazones, which don't have published Kow's, we calculated Kp's of structurally similar molecules, robenidine and guanabenz. This scenario represents the application of our UV-absorbers directly to the skin via topical products. Lastly, we calculated the Kp of octinoxate for comparison. Based on these theoretical values, our compounds should have a much lower skin permeation potential than octinoxate and other commercial UV-absorbers."}, "[7]": {"assay": "UV absorbance spectroscopy versus subcomponents", "type": "physicochemical", "conditions": "versus diaminoguanidine and cinnamaldehyde; UVB and UVA regions", "source_text": "We determined the UV absorbing capacity of guanyl hydrazones in comparison to their aminoguanidine and aldehyde subcomponents. We prepared cinnamaldehyde diaminoguanidine (CinDAG) by reacting its subcomponents, diaminoguanidine and cinnamaldehyde, in a molar ratio of 1:2."}, "[8]": {"assay": "film leaching in DI or sea water with anion pairing", "type": "physicochemical", "method": "General protocol to assess film leaching: To a polyethylene square (1 cm by 1 cm, cut from a Ziploc® bag) 10 μL of a concentrated solution (˜5 wt % in EtOH) of imine was applied and allowed to dry at room temperature (10-20 min) before a concentrated solution of the anion (e.g., sodium lauryl sulfate, sodium cocoyl glutamate, sodium carbonate) to be tested (˜5 wt %) was co-applied and again allowed to dry on the film surface. The film sample was placed inside a 1.5 mL plastic tube containing 1 mL of DI or sea water (sourced from San Francisco Bay, Albany, Calif.) and after a set time (10 min), analyzed for the presence of soluble imine, which was quantified as a percentage of total sample that was originally present on the film (FIG. 6).\nAs an additional feature, reversible UV-absorbers (e.g., aminoguanidine-aldehyde condensation products) can be paired with anions (e.g., that associate with the cation at typical use levels, e.g., 0.1-10 wt %) to manipulate solubility characteristics. This can greatly reduce water solubility to produce a waterproof sunscreen without relying on increased hydrophobicity of the active agent which is related to increased skin penetration (Wilschut, A., et al., Chemosphere, 30: 1275-1296 (1995); Guy, R. H., and R. O. Potts. American Journal of Industrial Medicine, 23(5): 711-719 (1993)))."}},
  "data": [
    {"compound": "COc1ccc(C=O)cc1", "note": "[Anisaldehyde]", "values": [
      {"measurement": "LC50 (mg/L) Fish", "setting": "[1]", "result": 215, "unit": "mg/L"},
      {"measurement": "LD50 (mg/kg) Rat, oral", "setting": "[2]", "result": 1510, "unit": "mg/kg"}
    ]},
    {"compound": "O=Cc1ccccc1", "note": "[Benzaldehyde]", "values": [
      {"measurement": "LC50 (mg/L) Fish", "setting": "[3]", "result": 12.4, "unit": "mg/L"},
      {"measurement": "LD50 (mg/kg) Rat, oral", "setting": "[2]", "result": 1300, "unit": "mg/kg"}
    ]},
    {"compound": "NC(N)=NN=CC=Cc1ccccc1", "note": "[CinAG, cinnamaldehyde aminoguanidine]", "values": [
      {"measurement": "in vitro SPF improvement over octinoxate", "setting": "[4]; concentration of 1% in formula", "result": 155, "unit": "%"}
    ]},
    {"compound": "O=CC=Cc1ccccc1", "note": "[Cinnamaldehyde]", "values": [
      {"measurement": "LC50 (mg/L) Fish", "setting": "[3]", "result": 105.8, "unit": "mg/L"},
      {"measurement": "LD50 (mg/kg) Rat, oral", "setting": "[2]", "result": 3350, "unit": "mg/kg"}
    ]},
    {"compound": "CC(C)c1ccc(C=NN=C(N)N)cc1", "note": "[CuminAG, cuminaldehyde aminoguanidine]", "values": [
      {"measurement": "adverse reactions in RIPT", "setting": "[5]; Daily Shower spray cleaner containing 0.2 or 1.0% CuminAG, pH 5.5-5.9, diluted 3% in DI water, 52 volunteers, induction and challenge", "result": "no adverse reactions of any kind"}
    ]},
    {"compound": "CC(C)c1ccc(C=O)cc1", "note": "[Cuminaldehyde]", "values": [
      {"measurement": "LC50 (mg/L) Fish", "setting": "[3]", "result": 6.62, "unit": "mg/L"},
      {"measurement": "LD50 (mg/kg) Rat, oral", "setting": "[2]", "result": 1390, "unit": "mg/kg"}
    ]},
    {"compound": "N/N=C(\\N)NN", "note": "[Diaminoguanidine]", "values": [
      {"measurement": "Kp/Kp octinoxate", "setting": "[6]", "result": 0.0001}
    ]},
    {"compound": "CCCCC(CC)COC(=O)C=Cc1ccc(OC)cc1", "note": "(stereo not drawn) [Octinoxate, reference compound]", "values": [
      {"measurement": "Kp/Kp octinoxate", "setting": "[6]", "result": 1.0000}
    ]},
    {"compound": "CCCCCCCCCCCCOS(=O)(=O)[O-].[Na+]", "note": "[sodium lauryl sulfate]", "values": [
      {"measurement": "subjects with Grade 1 reaction in RIPT", "setting": "[5]; positive control, 2.0% solution, ICDRG scale, 1=erythema throughout at least 3/4 of patch area", "result": "Four"},
      {"measurement": "subjects with Grade 2 reaction in RIPT", "setting": "[5]; positive control, 2.0% solution, ICDRG scale, 2=erythema and induration throughout at least 3/4 of patch area", "result": "two"}
    ]},
    {"compound": "cinnamaldehyde diaminoguanidine [CinDAG]", "values": [
      {"measurement": "critical wavelength", "setting": "[4]; wavelength at which 90% of total absorbance from 290-400 nm occurred", "result": "high critical wavelength"},
      {"measurement": "UV-absorbing capacity compared to subcomponents", "setting": "[7]", "result": "significantly more UV-absorbing capacity than its subcomponents"},
      {"measurement": "water resistance of the blend", "setting": "[8]; blend with sodium cocoyl glutamate", "result": "comparable to that of octinoxate"},
      {"measurement": "solubility (leaching off film) on anion pairing", "setting": "[8]; sodium cocoyl glutamate added, fresh and salt water, 10 min", "result": "decreased solubility in both fresh and salt water"}
    ]}
  ]
}
